In patent US12240857B2 (priority 2017, dated 2025):

Tests used:
[1] = tested on: BDBV mucin-domain-deleted glycoprotein pseudotyped VSV; test: microbe, parasite or virus in culture; format: cell-based, Bundibugyo ebolavirus; conditions: Vesicular stomatitis virus, Vero, read-out: EC50 BDBV
[2] = in vitro; conditions: African green monkey, CC50
[3] = tested on: EBOV mucin-domain-deleted glycoprotein pseudotyped VSV; test: microbe, parasite or virus in culture; format: cell-based, Zaire ebolavirus; conditions: Zaire ebolavirus, Vero, read-out: EC50 EBOV

Row | Compound | EC50 [1] | CC50 [2] | EC50 [3]
1 | CC12CC3CC(C(=O)NC4CC5(CNC5)C4)(C1)CC(c1ccccc1)(C3)C2 (stereo not drawn) [Example A89] | 880 nM | 40.7 µM | 250 nM
2 | CC12CC3CC(C(=O)NC4CC5(CC(N)C5)C4)(C1)CC(c1ccccc1)(C3)C2 (stereo not drawn) [Example A90] | 200 nM | 59 µM | 50 nM
3 | CC12CC3CC(C(=O)N4CC5(CC(N)C5)C4)(C1)CC(c1ccccc1)(C3)C2 (stereo not drawn) [Example A91] | 190 nM | 17.4 µM | 120 nM
4 | CC12CC3CC(C(=O)NC4C[C@H]5CC[C@H](C4)N5)(C1)CC(c1ccccc1)(C3)C2 (stereo partly drawn) [Example A92] | 700 nM | 10.8 µM | 190 nM
5 | CC12CC3CC(C(=O)N4C5CCC4CC(N)C5)(C1)CC(c1ccccc1)(C3)C2 (stereo not drawn) [Example A93] | 360 nM | 12.2 µM | 210 nM
6 | N[C@H]1CC[C@H](NC(=O)C23CC4CC(C2)CC(C(F)(F)F)(C4)C3)CC1 [Example A94] | 880 nM | 5.1 µM | 1000 nM
7 | CC12CC3CC(C(=O)NCC4CCNCC4)(C1)CC(c1ccccc1)(C3)C2 (stereo not drawn) [Example A95] | 970 nM | 23.1 µM | 490 nM
8 | CC12CC3CC(C(=O)N[C@H]4CC[C@H](CN)CC4)(C1)CC(c1ccccc1)(C3)C2 (stereo partly drawn) [Example A96] | 80 nM | 11.6 µM | 30 nM
9 | N[C@H]1CC[C@H](NC(=O)CC2(c3ccccc3)C3CC4CC(C3)CC2C4)CC1 (stereo partly drawn) [Example A97] | 250 nM | 100 µM | 340 nM
10 | N[C@H]1CC[C@@H](NC(=O)CC2(c3ccccc3)C3CC4CC(C3)CC2C4)CC1 (stereo partly drawn) [Example A98] | 580 nM | 11.3 µM | 1160 nM
11 | O=C(CC1(c2ccccc2)C2CC3CC(C2)CC1C3)NC1CCNCC1 (stereo not drawn) [Example A99] | 190 nM | 26.7 µM | 690 nM
12 | Cc1cccc(C23CC4CC(CC(C(=O)N[C@H]5CC[C@H](N)CC5)(C4)C2)C3)c1 [Example A100] | 180 nM | 6.3 µM | 220 nM
13 | CC12CC3CC(C(=O)N[C@H]4[C@@H]5CNC[C@@H]54)(C1)CC(c1ccccc1)(C3)C2 (stereo partly drawn) [Example A102] | 210 nM | 29 µM | 120 nM
14 | CC12CC3CC(C(=O)Nc4ccc(CN)cc4)(C1)CC(c1ccccc1)(C3)C2 (stereo not drawn) [Example A103] | 280 nM | 7.9 µM | 70 nM
15 | CN(C(=O)C12CC3CC(C)(C1)CC(c1ccccc1)(C3)C2)C1CCNCC1 (stereo not drawn) [Example A104] | 220 nM | 66 µM | 60 nM
16 | CC(C)C12CC3CC(C(=O)N[C@H]4CC[C@H](N)CC4)(CC(c4ccccc4)(C3)C1)C2 (stereo partly drawn) [Example A105] | 1050 nM | 35 µM | 140 nM
17 | C[C@H]1C[C@H](NC(=O)C23CC4CC(C)(C2)CC(c2ccccc2)(C4)C3)CCN1 (stereo partly drawn) [Example A107] | 300 nM | 14.7 µM | 46 nM
18 | CC12CC3CC(C(=O)N[C@@H]4CCNC[C@H]4F)(C1)CC(c1ccccc1)(C3)C2 (stereo partly drawn) [Example A108] | 210 nM | 16.5 µM | 25 nM

Row | Compound | EC50 [1] | CC50 [2] | EC50 [3]
19 | CC12CC3CC(C(=O)NC4CCNCC4(F)F)(C1)CC(c1ccccc1)(C3)C2 (stereo not drawn) [Example A109] | 930 nM | 37 µM | 80 nM
20 | C[C@H]1C[C@@H](NC(=O)C23CC4CC(C)(C2)CC(c2ccccc2)(C4)C3)CCN1 (stereo partly drawn) [Example A110] | 190 nM | 17.5 µM | 21 nM
21 | CC12CC3CC(C(=O)NC4CCNCC4(C)C)(C1)CC(c1ccccc1)(C3)C2 (stereo not drawn) [Example A111] | 150 nM | 10.7 µM | 18 nM
22 | CC1CNCCC1NC(=O)C12CC3CC(C)(C1)CC(c1ccccc1)(C3)C2 (stereo not drawn) [Example A112] | 260 nM | 7.2 µM | 37 nM
23 | COC(=O)C12CC3CC(C(=O)N[C@H]4CC[C@H](N)CC4)(C1)CC(c1ccccc1)(C3)C2 (stereo partly drawn) [Example A115] | > 1000 nM | 59 µM | 980 nM
24 | CC12CC3CC(C(=O)Nc4ccncc4)(C1)CC(c1ccccc1)(C3)C2 (stereo not drawn) [Example A201, 3-methyl-5-phenyl-N-(pyridin-4-yl)adamantane-1-carboxamide] | > 1000 nM | 16.4 µM | 1100 nM
25 | CC12CC3CC(C(=O)NCc4ncc[nH]4)(C1)CC(c1ccccc1)(C3)C2 (stereo not drawn) [Example A202, N-(1H-imidazol-2-ylmethyl)-3-methyl-5-phenyladamantane-1-carboxamide] | 960 nM | 41.5 µM | 590 nM
26 | CC12CC3CC(C(=O)Nc4ccnc(N)c4)(C1)CC(c1ccccc1)(C3)C2 (stereo not drawn) [Example A203, N-(2-aminopyridin-4-yl)-3-methyl-5-phenyladamantane-1-carboxamide] | 1020 nM | 3.9 µM | 910 nM
27 | [O-][S+](NC1CCNCC1)C12CC3CC(CC(C3)C1)C2 (stereo not drawn) [Example A204, N-(piperidin-4-yl)adamantane-1-sulfinamide] | > 1000 nM | > 100 µM | > 1000 nM
28 | O=S(=O)(NC1CCNCC1)C12CC3CC(CC(C3)C1)C2 [Example A205, N-(piperidin-4-yl)adamantane-1-sulfonamide] | > 1000 nM | 37 µM | > 1000 nM
29 | CN1CCN(CC23CC4CC(C2)CC(c2ccccc2)(C4)C3)CC1 [Example C1] | 206 nM | 5.8 µM | 180 nM
30 | CC12CC3CC(CNC4CCNCC4)(C1)CC(c1ccccc1)(C3)C2 (stereo not drawn) [Example C3, N-((3-methyl-5-phenyladamantan-1-yl)methyl)piperidin-4-amine] | 210 nM | 1.8 µM | 234 nM
31 | CC1CCN(CCCOc2ccc(C34CC5CC(CC(C5)C3)C4)cc2)CC1 [Example C4, 1-(3-(4-(adamantan-1-yl)phenoxy)propyl)-4-methylpiperidine] | 400 nM | 7.2 µM | 140 nM
32 | c1cc(C23CC4CC(CC(C4)C2)C3)ccc1OCCCN1CCCCC1 [Example C5, 1-(3-(4-(adamantan-1-yl)phenoxy)propyl)piperidine] | 550 nM | 14.3 µM | 140 nM
33 | CN1CCN(CCCOc2ccc(C34CC5CC(CC(C5)C3)C4)cc2)CC1 [Example C6, 1-(3-(4-(adamantan-1-yl)phenoxy)propyl)-4-methylpiperazine] | 640 nM | 3.8 µM | 120 nM
34 | CC1CCN(CC(O)CCOc2ccc(C34CC5CC(CC(C5)C3)C4)cc2)CC1 (stereo not drawn) [Example C7, 4-(4-(adamantan-1-yl)phenoxy)-1-(4-methylpiperidin-1-yl)butan-2-ol] | 770 nM | 4.1 µM | 470 nM
35 | OC(CCOc1ccc(C23CC4CC(CC(C4)C2)C3)cc1)CN1CCCCC1 (stereo not drawn) [Example C8, 4-(4-(adamantan-1-yl)phenoxy)-1-(piperidin-1-yl)butan-2-ol] | 290 nM | 1.3 µM | 140 nM
36 | CN1CCN(CC(O)CCOc2ccc(C34CC5CC(CC(C5)C3)C4)cc2)CC1 (stereo not drawn) [Example C9, 4-(4-(adamantan-1-yl)phenoxy)-1-(4-methylpiperazin-1-yl)butan-2-ol] | 990 nM | 8.3 µM | 660 nM
